Data published in US20240215576A1, “HEAT-RESISTANT MOLD GROWTH INHIBITOR, FOOD AND DRINK IN WHICH GROWTH OF HEAT-RESISTANT MOLD IS INHIBITED, AND METHOD FOR INHIBITING GROWTH OF HEAT-RESISTANT MOLD” (NIPPON SHINYAKU CO., LTD., priority 2021, published 2024).
Counter-ions that a name gives are not always drawn. Each block holds one molecule with its values, some of them ahead of it.

Legend:
B. fulva [1] = experiment: Growth of B. fulva in Trypticase soy broth medium stored 7 days at 25° C.; assay type: cell-based, Byssochlamys fulva; conditions: for Growth of B. fulva after lapse of 7 days under storage at 25° C.: concentration 1000 ppm; for growth inhibition effect against B. fulva: 1000 ppm
Method: (§1) Diethyl fumarate and 2-decenoic acid were prepared for use in Examples. In addition, the following components reported to have a growth inhibition effect against normal mold (non-heat-resistant mold) were prepared for use in Comparative Examples: palmitic acid, trans-anethole, benzyl alcohol, cinnamic acid, hinokitiol, salicylic acid, hexanal, 2-mercapto benzothiazole, p-cymene, 1,8-cineole, α-pinene, estragole, 4-hydroxy-3,5-dimethoxybenzoic acid, and linalyl acetate. Then, each component was added to a medium of Trypticase soy broth such that the concentration of each component was as shown in Table 3 below.
(§2) These media were stored for 7 days under an atmosphere at 25° C. […] In Table, those showing the growth are represented by “+,” and those showing no growth are represented by “−.”

N. primulina [2] = experiment: Growth of N. primulina in Trypticase soy broth medium stored 7 days at 25° C.; assay type: cell-based, Neosartorya primulina; conditions: for Growth of N. primulina after lapse of 7 days under storage at 25° C.: concentration 1000 ppm; for growth inhibition effect against N. primulina: 1000 ppm
Method: as §1, §2

B. fulva [3] = experiment: Growth of B. fulva in tomato juice stored at 25° C.; assay type: cell-based, Byssochlamys fulva; conditions: for generation of B. fulva after the lapse of 14 days: 25° C., high concentration of the active component (270 ppm); for Growth of B. fulva, 3 days / Growth of B. fulva, 5 days / Growth of B. fulva, 7 days / Growth of B. fulva, 10 days / Growth of B. fulva, 14 days: storage at 25° C.
Method: Diethyl fumarate or 2-decenoic acid was added to tomato juice (100% pure, salt-free) such that the concentration of the component was as shown in Table 1 below. […] In Table 1, those showing the growth of B. fulva are represented by “+,” and those showing no growth are represented by “−.”

N. primulina [4] = experiment: Growth of N. primulina in tomato juice stored at 25° C.; assay type: cell-based, Neosartorya primulina; set-up: key to Growth of N. primulina, 5 days / Growth of N. primulina, 7 days / Growth of N. primulina, 10 days / Growth of N. primulina, 14 days: those showing the growth of N. primulina are represented by “+,”; those showing no growth are represented by “−.”; conditions: for growth inhibition effect against N. primulina after the lapse of 14 days: high concentration of the active component (270 ppm); for Growth of N. primulina, 3 days / Growth of N. primulina, 5 days / Growth of N. primulina, 7 days / Growth of N. primulina, 10 days / Growth of N. primulina, 14 days: storage at 25° C.
Method: Diethyl fumarate or 2-decenoic acid was added to tomato juice (100% pure, salt-free) such that the concentration of the component was as shown in Table 2 below. […] In Table 2, those showing the growth of N. primulina are represented by “+,” and those showing no growth are represented by “−.”

Growth of B. fulva after lapse of 7 days under storage at 25° C. (B. fulva [1]): +
Growth of N. primulina after lapse of 7 days under storage at 25° C. (N. primulina [2]): +
SMILES: CC12CCC(CC1)C(C)(C)O2 [1,8-Cineole]

growth inhibition effect against B. fulva (B. fulva [1]): exhibit the growth inhibition effect
growth inhibition effect against N. primulina (N. primulina [2]): exhibit the growth inhibition effect
SMILES: CCCCCCC/C=C/C(=O)O [2-Decenoic acid, (E)-dec-2-enoic acid]
Growth of B. fulva after lapse of 7 days under storage at 25° C. (B. fulva [1]): −
Growth of N. primulina after lapse of 7 days under storage at 25° C. (N. primulina [2]): −
generation of B. fulva after the lapse of 14 days (B. fulva [3]): no generation
Growth of B. fulva, 3 days (B. fulva [3]; 70 ppm): −
Growth of B. fulva, 5 days (B. fulva [3]; 70 ppm): −
Growth of B. fulva, 7 days (B. fulva [3]; 70 ppm): −
Growth of B. fulva, 10 days (B. fulva [3]; 70 ppm): +
Growth of B. fulva, 14 days (B. fulva [3]; 70 ppm): +
Growth of B. fulva, 3 days (B. fulva [3]; 270 ppm): −
Growth of B. fulva, 5 days (B. fulva [3]; 270 ppm): −
Growth of B. fulva, 7 days (B. fulva [3]; 270 ppm): −
Growth of B. fulva, 10 days (B. fulva [3]; 270 ppm): −
Growth of B. fulva, 14 days (B. fulva [3]; 270 ppm): −
growth inhibition effect against N. primulina after the lapse of 14 days (N. primulina [4]; 25° C.): the effect is maintained
Growth of N. primulina, 3 days (N. primulina [4]; 70 ppm): −
Growth of N. primulina, 5 days (N. primulina [4]; 70 ppm): +
Growth of N. primulina, 7 days (N. primulina [4]; 70 ppm): +
Growth of N. primulina, 10 days (N. primulina [4]; 70 ppm, 10 days): +
Growth of N. primulina, 14 days (N. primulina [4]; 70 ppm): +
Growth of N. primulina, 3 days (N. primulina [4]; 270 ppm): −
Growth of N. primulina, 5 days (N. primulina [4]; 270 ppm): −
Growth of N. primulina, 7 days (N. primulina [4]; 270 ppm): −
Growth of N. primulina, 10 days (N. primulina [4]; 270 ppm, 10 days): −
Growth of N. primulina, 14 days (N. primulina [4]; 270 ppm): −

SMILES: Sc1nc2ccccc2s1 [2-Mercapto benzothiazole]
Growth of B. fulva after lapse of 7 days under storage at 25° C. (B. fulva [1]): +
Growth of N. primulina after lapse of 7 days under storage at 25° C. (N. primulina [2]): +

SMILES: COc1cc(C(=O)O)cc(OC)c1O [4-Hydroxy-3,5-dimethoxybenzoic acid]
Growth of B. fulva after lapse of 7 days under storage at 25° C. (B. fulva [1]): +
Growth of N. primulina after lapse of 7 days under storage at 25° C. (N. primulina [2]): +

SMILES: OCc1ccccc1 [Benzyl alcohol]
Growth of B. fulva after lapse of 7 days under storage at 25° C. (B. fulva [1]): +
Growth of N. primulina after lapse of 7 days under storage at 25° C. (N. primulina [2]): +

SMILES: O=C(O)C=Cc1ccccc1 [Cinnamic acid]
Growth of B. fulva after lapse of 7 days under storage at 25° C. (B. fulva [1]): +
Growth of N. primulina after lapse of 7 days under storage at 25° C. (N. primulina [2]): +

growth inhibition effect against B. fulva (B. fulva [1]): exhibit the growth inhibition effect
growth inhibition effect against N. primulina (N. primulina [2]): exhibit the growth inhibition effect
SMILES: CCOC(=O)/C=C/C(=O)OCC [Diethyl fumarate, diethyl (E)-but-2-enedioate]
Growth of B. fulva after lapse of 7 days under storage at 25° C. (B. fulva [1]): −
Growth of N. primulina after lapse of 7 days under storage at 25° C. (N. primulina [2]): −
generation of B. fulva after the lapse of 14 days (B. fulva [3]): no generation
Growth of B. fulva, 3 days (B. fulva [3]; 70 ppm): −
Growth of B. fulva, 5 days (B. fulva [3]; 70 ppm): −
Growth of B. fulva, 7 days (B. fulva [3]; 70 ppm): −
Growth of B. fulva, 10 days (B. fulva [3]; 70 ppm): +
Growth of B. fulva, 14 days (B. fulva [3]; 70 ppm): +
Growth of B. fulva, 3 days (B. fulva [3]; 270 ppm): −
Growth of B. fulva, 5 days (B. fulva [3]; 270 ppm): −
Growth of B. fulva, 7 days (B. fulva [3]; 270 ppm): −
Growth of B. fulva, 10 days (B. fulva [3]; 270 ppm): −
Growth of B. fulva, 14 days (B. fulva [3]; 270 ppm): −
generation of N. primulina after the lapse of 10 days (N. primulina [4]; 25° C., 10 days): no generation
growth inhibition effect against N. primulina after the lapse of 14 days (N. primulina [4]; 25° C.): the effect is maintained
Growth of N. primulina, 3 days (N. primulina [4]; 70 ppm): −
Growth of N. primulina, 5 days (N. primulina [4]; 70 ppm): −
Growth of N. primulina, 7 days (N. primulina [4]; 70 ppm): −
Growth of N. primulina, 10 days (N. primulina [4]; 70 ppm, 10 days): −
Growth of N. primulina, 14 days (N. primulina [4]; 70 ppm): +
Growth of N. primulina, 3 days (N. primulina [4]; 270 ppm): −
Growth of N. primulina, 5 days (N. primulina [4]; 270 ppm): −
Growth of N. primulina, 7 days (N. primulina [4]; 270 ppm): −
Growth of N. primulina, 10 days (N. primulina [4]; 270 ppm, 10 days): −
Growth of N. primulina, 14 days (N. primulina [4]; 270 ppm): −

SMILES: C=CCc1ccc(OC)cc1 [Estragole]
Growth of B. fulva after lapse of 7 days under storage at 25° C. (B. fulva [1]): +
Growth of N. primulina after lapse of 7 days under storage at 25° C. (N. primulina [2]): +

SMILES: CCCCCC=O [Hexanal]
Growth of B. fulva after lapse of 7 days under storage at 25° C. (B. fulva [1]): +
Growth of N. primulina after lapse of 7 days under storage at 25° C. (N. primulina [2]): +

SMILES: CC(C)c1cccc(=O)c(O)c1 [Hinokitiol]
Growth of B. fulva after lapse of 7 days under storage at 25° C. (B. fulva [1]): +
Growth of N. primulina after lapse of 7 days under storage at 25° C. (N. primulina [2]): +

SMILES: C=CC(C)(CCC=C(C)C)OC(C)=O (stereo not drawn) [Linalyl acetate]
Growth of B. fulva after lapse of 7 days under storage at 25° C. (B. fulva [1]): +
Growth of N. primulina after lapse of 7 days under storage at 25° C. (N. primulina [2]): +

SMILES: CCCCCCCCCCCCCCCC(=O)O [Palmitic acid]
Growth of B. fulva after lapse of 7 days under storage at 25° C. (B. fulva [1]): +
Growth of N. primulina after lapse of 7 days under storage at 25° C. (N. primulina [2]): +

SMILES: O=C(O)c1ccccc1O [Salicylic acid]
Growth of B. fulva after lapse of 7 days under storage at 25° C. (B. fulva [1]): +
Growth of N. primulina after lapse of 7 days under storage at 25° C. (N. primulina [2]): +

SMILES: C/C=C/c1ccc(OC)cc1 [Trans-anethole]
Growth of B. fulva after lapse of 7 days under storage at 25° C. (B. fulva [1]): +
Growth of N. primulina after lapse of 7 days under storage at 25° C. (N. primulina [2]): +

SMILES: Cc1ccc(C(C)C)cc1 [p-Cymene]
Growth of B. fulva after lapse of 7 days under storage at 25° C. (B. fulva [1]): +
Growth of N. primulina after lapse of 7 days under storage at 25° C. (N. primulina [2]): +

SMILES: CC1=CCC2CC1C2(C)C (stereo not drawn) [α-Pinene]
Growth of B. fulva after lapse of 7 days under storage at 25° C. (B. fulva [1]): +
Growth of N. primulina after lapse of 7 days under storage at 25° C. (N. primulina [2]): +
